From patent publication US20250073209A1, “COVALENT TARGETING OF RhoA FOR CANCER THERAPY” (The University of Hong Kong, priority 2023, published 2025) come the findings set out here.

In data set [1] the target is RhoA (Homo sapiens, UniProt P61586). In words: RhoA-GTP rhotekin pull-down, serum starvation-re-stimulation. In kind it is cell-based. The arrangement: endogenous in cells; host or cells: HCT116, HT29. How it is done: RhoA Pull-Down Activation Assay Biochem Kit (#BK036) was purchased from Cytoskeleton. According to the manufacturer's protocol, total cell lysate (0.5 mg/mL; 300 μL) was added to 7.5 μL of Rhotekin-Rho Binding Domain beads in 0.6 mL tubes. The solution mixture was incubated at 4° C. on an end-to-end rotator for 1 hour. Beads were washed with 500 μL of washing buffer once, then centrifuged at 5000g for 3 min and the supernatant was discarded. RhoA-GTP was then eluted in 2× laemmli buffer and resolved in 10% SDS-PAGE.
GTP loading onto RhoA is critical for the protein activation and mediating downstream signals. In view of the inhibitions of GDP-to-GTP exchange of RhoA by CL16 in vitro as discussed above, effects of CL16 on RhoA biology in colorectal cancer cells were examined. In the serum starvation-re-stimulation experiment, HCT116 cells were grown in serum-free medium with CL16, Rhosin or solvent control for 24 h, followed by stimulation with 10% FBS for 10 min. The cells were then lysed and the RhoA activity was assayed by the level of RhoA-GTP, which is the active form of RhoA. […] HT29 cells were incubated with solvent vehicle, CL16 or Rhosin in complete medium for 24 h. […] Confocal fluorescence images from HCT116 and HT29 cells expressing FRET RhoA-biosensor in the serum starvation-restimulation experiment were taken.

The test system of data set [2] is HCT116 xenograft. Description: Mouse HCT116 xenograft model. The data set is classed as in vivo. As to conditions: nude mice, 10 mg/kg intraperitoneal. How it is done: FIG. 7A is a graph showing inhibition of tumor growth by CL16 in mouse HCT116 xenografts through intraperitoneal injection at 10 mg/kg (n=6 per group). FIG. 7B is a graph showing inhibition of tumor growth by CL16 in mouse HT29 xenografts through intraperitoneal injection at 10 mg/kg (n=7). FIG. 7C is a graph showing the body weight of mice with HT29 xenografts throughout the treatment with CL16. FIG. 7D is a graph showing inhibition of tumor growth by CL16 in mouse SW620 xenografts through intraperitoneal injection at 10 mg/kg (n=6 per group). FIG. 7E is a bar graph showing the tumor weight of harvested tumors from the treated mice with SW620 xenografts. FIG. 7F is a graph showing the body weight of mice with SW620 xenografts throughout the treatment with CL16. Statistical analysis using a two-tailed Student's t-test. *P<0.05.
7-week-old mice with weight around 20 g were inoculated subcutaneously with HCT116 (2×10^6 cells per mouse) or HT29 (3×10^6 cells per mouse) cells, in serum-free RMPI or Matrigel in PBS respectively. […] The tumor volume and body weight of the nude mice were measured throughout the treatment. The tumor volume was calculated by the equation: Volume (mm^3)=1×w^2/2, where 1 and w were the length and width of the tumor. At the end of the treatment, the mice were sacrificed and the tumor weight was measured. […]

In data set [3] the target is Cdc42 (Homo sapiens, UniProt P60953). Description: Cdc42-GTP PAK-PBD pull-down in HT29 cells. In kind it is cell-based. The arrangement: endogenous in cells; host or cells: HT29. Conditions: HT29, complete medium 24 h. The source says:
The procedure is similar to that for RhoA-GTP assay, except that Rac1-GTP and Cdc42-GTP in CRC cells were first enriched by Rac1 Pull-Down Activation Assay Biochem Kit (Cytoskeleton #BK035) instead of using the RhoA kit. The enriched Rac1-GTP and Cdc42-GTP were then immunoblotted by Rac1/2/3 antibody (CST #2465) and Cdc42 antibody (CST #2462) respectively.
GTP loading onto RhoA is critical for the protein activation and mediating downstream signals. In view of the inhibitions of GDP-to-GTP exchange of RhoA by CL16 in vitro as discussed above, effects of CL16 on RhoA biology in colorectal cancer cells were examined. In the serum starvation-re-stimulation experiment, HCT116 cells were grown in serum-free medium with CL16, Rhosin or solvent control for 24 h, followed by stimulation with 10% FBS for 10 min. The cells were then lysed and the RhoA activity was assayed by the level of RhoA-GTP, which is the active form of RhoA. […] HT29 cells were incubated with solvent vehicle, CL16 or Rhosin in complete medium for 24 h. The cells were then washed, lysed and subjected to rhotekin pull-down for blotting RhoA-GTP, or PAK-PBD pull-down for blotting Rac1-GTP and Cdc42-GTP. Confocal fluorescence images from HCT116 and HT29 cells expressing FRET RhoA-biosensor in the serum starvation-restimulation experiment were taken.

In data set [4] the test system is HT29 cells. In words: Transwell (Matrigel) invasion assay. In kind it is cell-based, human. As to conditions: HT29, 24 h.
For data set [5], the system named is CRCs. In words: MTT assay on CRC cells. As to conditions: 48 h. The data set is classed as cell-based, human. How it is done: HCT116 cells was seeded at 2,500 cells/well; HT29, LOVO and SW620 cells were seeded at 4,000 cells/well; CCD-18Co cells were seeded at 10,000/well; and SW480 cells were seeded at 12,000 cells/well in 96 well plate in triplicates. Cells were treated with a concentration gradient of CL16 for 48 hours. Then, cells were incubated with 10% 3-(4,5-Dimethylthiazol-2-yl)-2,5-diphenyltetrazolium bromide (MTT) solution ([…]) in 37° C. for 4 hours. Cells were then lyzed in 10% SDS in […] HCl. Absorbance of individual well was measured at 570 nm. IC50 values were analyzed by nonlinear best-fit regression using Prism Graphpad 9.
As discussed above, overexpression/hyperactivity of RhoA associated with poor prognosis and aggressive behaviors of CRCs (FIG. 8A). Thus, the anti-cancer and anti-metastatic properties of CL16 in CRCs were explored. First, it was confirmed that genetic knockdown of RhoA by siRNA slowed down colony formation and migration of CRCs by using staining (data not shown) and wound healing assay (FIG. 4A). MTT assay was used to determine cell viability of CRCs and normal colon fibroblast CCD-18Co cells treated with CL16 for 48 h (n=3 different biological replicates/group). A much lower expression level of RhoA in normal colon fibroblast CCD-18Co cells was also determined, as compared to CRCs, by western blotting (data not shown). […]
A general note: Formazan colour is commonly taken as a measure of viable cells.

Data set [6] relates to HT29 cells. In words: Wound healing assay. In kind it is cell-based, human. As to the method: For wound healing assay, HT29 cells were seeded in 90% confluency, a wound was scratched using a P-20 tip the next day. Cell debris was washed with PBS then aspirated. Then, complete DMEM medium with CL16 or Rhosin with corresponding concentration was added to the cells. Wound closure was recorded every 24 hours under light microscope with 10× objective and measurement of wound area was made by ImageJ.
As discussed above, overexpression/hyperactivity of RhoA associated with poor prognosis and aggressive behaviors of CRCs (FIG. 8A). Thus, the anti-cancer and anti-metastatic properties of CL16 in CRCs were explored. First, it was confirmed that genetic knockdown of RhoA by siRNA slowed down colony formation and migration of CRCs by using staining (data not shown) and wound healing assay (FIG. 4A). MTT assay was used to determine cell viability of CRCs and normal colon fibroblast CCD-18Co cells treated with CL16 for 48 h (n=3 different biological replicates/group). A much lower expression level of RhoA in normal colon fibroblast CCD-18Co cells was also determined, as compared to CRCs, by western blotting (data not shown). […] HT29 cells were transfected with siRNA (5 μM) using Dharmafect1 for 48 hours, and protein expressions were then investigated by immunoblotting.

Sequence of RhoA (P61586 whole entry, the tested form may be a part): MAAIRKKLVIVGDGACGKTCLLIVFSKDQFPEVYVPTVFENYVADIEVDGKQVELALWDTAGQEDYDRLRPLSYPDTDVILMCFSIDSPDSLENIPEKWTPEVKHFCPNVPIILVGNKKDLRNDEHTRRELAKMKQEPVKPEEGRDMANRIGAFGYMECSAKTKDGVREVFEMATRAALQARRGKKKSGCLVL
Sequence of Cdc42 (P60953 whole entry): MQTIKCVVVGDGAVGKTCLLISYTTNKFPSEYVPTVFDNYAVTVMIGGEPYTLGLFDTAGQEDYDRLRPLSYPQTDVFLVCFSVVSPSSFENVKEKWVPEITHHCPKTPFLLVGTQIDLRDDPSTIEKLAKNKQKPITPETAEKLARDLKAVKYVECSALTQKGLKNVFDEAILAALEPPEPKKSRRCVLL

On to `O=C(CCl)N1N=C(c2cc3ccccc3o2)CC1c1ccco1` (stereo not shown) [CL16], for which the “RhoA-GTP level compared with Rhosin” value in data set [1] (10 μM CL16 vs 30 μM Rhosin) is given as “lower RhoA-GTP level”. Also, the “cellular RhoA-GTP level after serum stimulation vs solvent control” value in data set [1] (HCT116, serum-free 24 h, 10% FBS 10 min) is listed as “much lower cellular RhoA-GTP levels”. Further, in data set [2], the “tumor growth vs vehicle control” value was “significantly inhibited tumor growth”. Further, the “Cdc42 activity (Cdc42-GTP)” value in data set [3] was “no significant changes”. Moreover, in data set [4], the cell invasion result is “good efficacy in reducing HT29 cell migration and invasion”. For the same compound, the “cytotoxicity (cell viability)” value in data set [5] was “cytotoxicity effects”. In data set [6], the cell migration entry is “good efficacy in reducing HT29 cell migration and invasion”.
